Measured values published in patent US9051270B2, “Pyridone amides as modulators of sodium channels” (Vertex Pharmaceuticals Incorporated, priority 2013, dated 2015).

Molecular target: human Nav1.8 (Homo sapiens (Human), UniProt Q9Y5Y9)
Test: E-VIPR optical membrane potential assay with electrical stimulation
Type: cell-based
Details: HEK cells expressing human Nav1.8
Source text: Sodium channels are voltage-dependent proteins that can be activated by inducing membrane voltage changes by applying electric fields. […] The instrument comprises a microtiter plate handler, an optical system for exciting the coumarin dye while simultaneously recording the coumarin and oxonol emissions, a waveform generator, a current- or voltage-controlled amplifier, and a device for inserting electrodes in well. Under integrated computer control, this instrument passes user-programmed electrical stimulus protocols to cells within the wells of the microtiter plate.
24 hours before the assay on E-VIPR, HEK cells expressing human Nav1.8 were seeded in 384-well poly-lysine coated plates at 15,000-20,000 cells per well. […] Cells were grown in vented cap flasks, in 90% humidity and 5% CO2.
To make the solution added volume of 10% Pluronic F127 stock equal to volumes of CC2-DMPE+DiSBAC6(3). The order of preparation was first mixing Pluronic and CC2-DMPE, then adding DiSBAC6(3) while vortexing, then adding Bath1+β-Cyclodextrin.
1) Pre-spotted compounds (in neat DMSO) into compound plates. […] Final compound plate volume was 80 μL (80-fold intermediate dilution from 1 μL DMSO spot; 160-fold final dilution after transfer to cell plate).
2) Prepared Hexyl Dye Solution.
3) Prepared cell plates. On the day of the assay, medium was aspirated and cells were washed three times with 100 μL of Bath1 Solution, maintaining 25 μL residual volume in each well.
4) Dispensed 25 μL per well of Hexyl Dye Solution into cell plates. Incubated for 20-35 minutes at room temp or ambient conditions.
5) Dispensed 80 μL per well of Bath1 into compound plates. Acid Yellow-17 (1 mM) was added and Potassium Chloride was altered from 4.5 to 20 mM depending on the NaV subtype and assay sensitivity.
6) Washed cell plates three times with 100 μL per well of Bath1, leaving 25 μL of residual volume. Then transferred 25 uL per well from Compound Plates to Cell Plates. Incubated for 20-35 minutes at room temp/ambient condition.
7) Read Plate on E-VIPR. […] A pre-stimulus recording was performed for 0.5 seconds to obtain the un-stimulated intensities baseline. The stimulatory waveform was followed by 0.5 seconds of post-stimulation recording to examine the relaxation to the resting state.
Data was analyzed and reported as normalized ratios of emission intensities measured in the 460 nm and 580 nm channels. The response as a function of time was reported as the ratios obtained using the following formula: […]
The data was further reduced by calculating the initial (Ri) and final (Rf) ratios. These were the average ratio values during part or all of the pre-stimulation period, and during sample points during the stimulation period. The response to the stimulus R=Rf/Ri was then calculated and reported as a function of time.
Control responses were obtained by performing assays in the presence of a compound with the desired properties (positive control), such as tetracaine, and in the absence of pharmacological agents (negative control). Responses to the negative (N) and positive (P) controls were calculated as above. The compound antagonist activity A is defined as:
[formula] where R is the ratio response of the test compound

human Nav1.8, sequence (Q9Y5Y9 whole entry): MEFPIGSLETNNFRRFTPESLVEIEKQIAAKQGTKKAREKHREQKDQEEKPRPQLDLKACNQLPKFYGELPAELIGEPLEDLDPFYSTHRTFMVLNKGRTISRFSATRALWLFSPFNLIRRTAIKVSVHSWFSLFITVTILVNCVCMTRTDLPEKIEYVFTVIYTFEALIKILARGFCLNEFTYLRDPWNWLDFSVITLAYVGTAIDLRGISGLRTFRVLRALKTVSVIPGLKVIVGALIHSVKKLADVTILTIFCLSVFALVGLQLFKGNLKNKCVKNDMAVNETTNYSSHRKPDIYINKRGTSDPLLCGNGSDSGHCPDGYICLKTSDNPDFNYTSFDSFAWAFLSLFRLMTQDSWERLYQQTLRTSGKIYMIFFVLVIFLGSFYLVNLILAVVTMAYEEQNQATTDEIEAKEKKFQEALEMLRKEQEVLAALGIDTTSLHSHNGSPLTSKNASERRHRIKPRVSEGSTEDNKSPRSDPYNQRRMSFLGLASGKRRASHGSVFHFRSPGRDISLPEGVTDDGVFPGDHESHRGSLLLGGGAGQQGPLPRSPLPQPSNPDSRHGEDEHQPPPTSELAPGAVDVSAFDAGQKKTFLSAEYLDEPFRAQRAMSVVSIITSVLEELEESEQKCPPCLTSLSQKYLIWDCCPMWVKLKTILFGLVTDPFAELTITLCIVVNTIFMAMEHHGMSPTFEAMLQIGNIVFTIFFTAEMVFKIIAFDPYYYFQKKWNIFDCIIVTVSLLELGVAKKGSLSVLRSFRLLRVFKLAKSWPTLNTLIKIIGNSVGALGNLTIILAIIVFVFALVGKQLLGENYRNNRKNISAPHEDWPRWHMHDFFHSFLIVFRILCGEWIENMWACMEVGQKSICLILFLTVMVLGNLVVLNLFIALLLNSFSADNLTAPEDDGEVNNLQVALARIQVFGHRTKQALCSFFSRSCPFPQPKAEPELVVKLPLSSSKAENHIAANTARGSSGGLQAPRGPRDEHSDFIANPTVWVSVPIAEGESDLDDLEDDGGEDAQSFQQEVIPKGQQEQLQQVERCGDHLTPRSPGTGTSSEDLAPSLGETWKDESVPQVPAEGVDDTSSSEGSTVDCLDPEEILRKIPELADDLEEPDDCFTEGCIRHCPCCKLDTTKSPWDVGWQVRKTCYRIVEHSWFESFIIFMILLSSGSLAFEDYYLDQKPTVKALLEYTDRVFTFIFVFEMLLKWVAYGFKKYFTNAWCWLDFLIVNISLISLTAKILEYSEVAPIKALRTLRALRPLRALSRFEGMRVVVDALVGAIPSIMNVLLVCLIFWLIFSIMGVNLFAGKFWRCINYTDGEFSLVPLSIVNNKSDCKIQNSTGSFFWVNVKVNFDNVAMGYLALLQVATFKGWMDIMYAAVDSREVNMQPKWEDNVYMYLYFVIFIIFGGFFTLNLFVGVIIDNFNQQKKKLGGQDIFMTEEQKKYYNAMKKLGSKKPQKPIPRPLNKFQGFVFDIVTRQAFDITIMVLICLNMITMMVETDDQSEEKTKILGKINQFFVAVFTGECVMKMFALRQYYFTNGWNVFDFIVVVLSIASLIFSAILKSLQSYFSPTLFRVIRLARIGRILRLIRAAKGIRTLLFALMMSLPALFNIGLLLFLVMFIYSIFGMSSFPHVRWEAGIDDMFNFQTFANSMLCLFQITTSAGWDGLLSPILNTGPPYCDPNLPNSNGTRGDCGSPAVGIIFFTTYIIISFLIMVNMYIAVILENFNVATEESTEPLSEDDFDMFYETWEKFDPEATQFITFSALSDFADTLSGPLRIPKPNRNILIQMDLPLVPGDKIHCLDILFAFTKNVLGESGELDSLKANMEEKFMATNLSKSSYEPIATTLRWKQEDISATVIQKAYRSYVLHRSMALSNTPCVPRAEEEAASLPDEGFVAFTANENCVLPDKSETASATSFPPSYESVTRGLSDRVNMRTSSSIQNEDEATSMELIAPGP

| IC50 [nM] | SMILES |
| --- | --- |
| 2 | COc1cc(F)ccc1Oc1cc(C(F)(F)F)ccc1C(=O)Nc1cc[nH]c(=O)c1 [Compound 158, 2-(4-fluoro-2-methoxyphenoxy)-N-(2-oxo-1,2-dihydropyridin-4-yl)-4-(trifluoromethyl)benzamide] |
| 3450 | O=C(Nc1cc[nH]c(=O)c1)c1cc(F)ccc1Oc1ccccc1 [Compound 95, 5-fluoro-N-(2-oxo-1,2-dihydropyridin-4-yl)-2-phenoxybenzamide] |
| 615 | O=C(Nc1cc[nH]c(=O)c1)c1ccc(C(F)(F)F)cc1Oc1ccc(C(F)(F)F)nc1 [Compound 144, N-(2-oxo-1,2-dihydropyridin-4-yl)-4-(trifluoromethyl)-2-((6-(trifluoromethyl)pyridin-3-yl)oxy)benzamide] |
| 330 | O=C(Nc1cc[nH]c(=O)c1)c1cc(C(F)(F)F)ccc1OCCC(F)(F)F [Compound 132, N-(2-oxo-1,2-dihydropyridin-4-yl)-5-(trifluoromethyl)-2-(3,3,3-trifluoropropoxy)benzamide] |
| 3800 | Cc1ncccc1Oc1cc(C(F)(F)F)ccc1C(=O)Nc1cc[nH]c(=O)c1 [Compound 147, 2-((2-methylpyridin-3-yl)oxy)-N-(2-oxo-1,2-dihydropyridin-4-yl)-4-(trifluoromethyl)benzamide] |
| 1650 | O=C(Nc1cc[nH]c(=O)c1)c1cc(C(F)(F)F)ccc1OC1C[C@@H]2C[C@@H]2C1 (stereo partly drawn) [Compound 135] |
| 330 | COc1ccc(Oc2ccc(F)cc2C(=O)Nc2cc[nH]c(=O)c2)c(Cl)c1 [Compound 103, 2-(2-chloro-4-methoxyphenoxy)-5-fluoro-N-(2-oxo-1,2-dihydropyridin-4-yl)benzamide] |
| 12600 | O=C(Nc1cc[nH]c(=O)c1)c1cc(OC(F)(F)F)ccc1OC1CCCCC1 [Compound 137, 2-(cyclohexyloxy)-N-(2-oxo-1,2-dihydropyridin-4-yl)-5-(trifluoromethoxy)benzamide] |
| 285 | O=C(Nc1cc[nH]c(=O)c1)c1cc(F)ccc1Oc1ccc(OCC2CC2)cc1 [Compound 108, 2-(4-(cyclopropylmethoxy)phenoxy)-5-fluoro-N-(2-oxo-1,2-dihydropyridin-4-yl)benzamide] |
| 2600 | O=C(Nc1cc[nH]c(=O)c1)c1cc(OC(F)(F)F)ccc1OCC1CCCC1 [Compound 136, 2-(cyclopentylmethoxy)-N-(2-oxo-1,2-dihydropyridin-4-yl)-5-(trifluoromethoxy)benzamide] |
| 488 | CC(C)CCOc1cc(C(F)(F)F)ccc1C(=O)Nc1cc[nH]c(=O)c1 [Compound 116, 2-(isopentyloxy)-N-(2-oxo-1,2-dihydropyridin-4-yl)-4-(trifluoromethyl)benzamide] |
| 400 | O=C(Nc1cc[nH]c(=O)c1)c1cc(F)ccc1Oc1ccc(C2CC2)cc1 [Compound 96, 2-(4-cyclopropylphenoxy)-5-fluoro-N-(2-oxo-1,2-dihydropyridin-4-yl)benzamide] |

The next lines start with the molecule.

| SMILES | IC50 [nM] |
| --- | --- |
| Cc1cccc(F)c1Oc1ccc(OC(F)(F)F)cc1C(=O)Nc1cc[nH]c(=O)c1 [Compound 39, 2-(2-fluoro-6-methylphenoxy)-N-(2-oxo-1,2-dihydropyridin-4-yl)-5-(trifluoromethoxy)benzamide] | 690 |
| Cc1cccc(F)c1Oc1cc(Cl)ccc1C(=O)Nc1cc[nH]c(=O)c1 [Compound 17, 4-chloro-2-(2-fluoro-6-methylphenoxy)-N-(2-oxo-1,2-dihydropyridin-4-yl)benzamide] | 1800 |
| COc1c(F)cccc1Oc1ccc(C(F)(F)F)cc1C(=O)Nc1cc[nH]c(=O)c1 [Compound 54, 2-(3-fluoro-2-methoxyphenoxy)-N-(2-oxo-1,2-dihydropyridin-4-yl)-5-(trifluoromethyl)benzamide] | 30 |
| COc1cc(F)ccc1Oc1cc(Cl)ccc1C(=O)Nc1cc[nH]c(=O)c1 [Compound 16, 4-chloro-2-(4-fluoro-2-methoxyphenoxy)-N-(2-oxo-1,2-dihydropyridin-4-yl)benzamide] | 14 |
| COc1ccc(Oc2cc(C(F)(F)C(F)(F)F)ccc2C(=O)Nc2cc[nH]c(=O)c2)cc1F [Compound 89, 2-(3-fluoro-4-methoxyphenoxy)-N-(2-oxo-1,2-dihydropyridin-4-yl)-4-(perfluoroethyl)benzamide] | 16 |
| CC(C)COc1cc(C(F)(F)F)ccc1C(=O)Nc1cc[nH]c(=O)c1 [Compound 117, 2-isobutoxy-N-(2-oxo-1,2-dihydropyridin-4-yl)-4-(trifluoromethyl)benzamide] | 1140 |
| O=C(Nc1cc[nH]c(=O)c1)c1cc(C(F)(F)F)ccc1Oc1ccc(C(F)(F)F)cc1 [Compound 74, N-(2-oxo-1,2-dihydropyridin-4-yl)-5-(trifluoromethyl)-2-(4-(trifluoromethyl)phenoxy)benzamide] | 5180 |
| Cc1ccc(Oc2ccc(C(F)(F)F)cc2C(=O)Nc2cc[nH]c(=O)c2)cc1 [Compound 27, N-(2-oxo-1,2-dihydropyridin-4-yl)-2-(p-tolyloxy)-5-(trifluoromethyl)benzamide] | 340 |
| CCOc1ccccc1Oc1ccc(C(F)(F)F)cc1C(=O)Nc1cc[nH]c(=O)c1 [Compound 46, 2-(2-ethoxyphenoxy)-N-(2-oxo-1,2-dihydropyridin-4-yl)-5-(trifluoromethyl)benzamide] | 64 |
| COc1ccc(Oc2ccc(Cl)cc2C(=O)Nc2cc[nH]c(=O)c2)cc1F [Compound 71, 5-chloro-2-(3-fluoro-4-methoxyphenoxy)-N-(2-oxo-1,2-dihydropyridin-4-yl)benzamide] | 92 |
| O=C(Nc1cc[nH]c(=O)c1)c1cc(C(F)(F)F)ccc1Oc1ccc(Cl)cc1F [Compound 51, 2-(4-chloro-2-fluorophenoxy)-N-(2-oxo-1,2-dihydropyridin-4-yl)-5-(trifluoromethyl)benzamide] | 87 |
| N#Cc1ccc(Oc2ccc(C(F)(F)F)cc2C(=O)Nc2cc[nH]c(=O)c2)cc1 [Compound 25, 2-(4-cyanophenoxy)-N-(2-oxo-1,2-dihydropyridin-4-yl)-5-(trifluoromethyl)benzamide] | 1100 |
| COc1ccc(Oc2ccc(C(F)(F)F)cc2C(=O)Nc2cc[nH]c(=O)c2)c(Cl)c1 [Compound 49, 2-(2-chloro-4-methoxyphenoxy)-N-(2-oxo-1,2-dihydropyridin-4-yl)-5-(trifluoromethyl)benzamide] | 24 |
| O=C(Nc1cc[nH]c(=O)c1)c1cc(C(F)(F)F)ccc1Oc1c(F)cccc1F [Compound 26, 2-(2,6-difluorophenoxy)-N-(2-oxo-1,2-dihydropyridin-4-yl)-5-(trifluoromethyl)benzamide] | 9650 |
| O=C(Nc1cc[nH]c(=O)c1)c1ccc(Cl)cc1Oc1c(F)cccc1Cl [Compound 18, 4-chloro-2-(2-chloro-6-fluorophenoxy)-N-(2-oxo-1,2-dihydropyridin-4-yl)benzamide] | 12000 |
| COc1ccc(Oc2ccc(C(F)(F)F)cc2C(=O)Nc2cc[nH]c(=O)c2)cc1 [Compound 45, 2-(4-methoxyphenoxy)-N-(2-oxo-1,2-dihydropyridin-4-yl)-5-(trifluoromethyl)benzamide] | 64 |
| O=C(Nc1cc[nH]c(=O)c1)c1cc(C(F)(F)F)ccc1Oc1ccc(OC(F)F)cc1 [Compound 73, 2-(4-(difluoromethoxy)phenoxy)-N-(2-oxo-1,2-dihydropyridin-4-yl)-5-(trifluoromethyl)benzamide] | 35 |
| CC(C)(C)Oc1ccc(Oc2ccc(F)cc2C(=O)Nc2cc[nH]c(=O)c2)cc1 [Compound 97, 2-(4-(tert-butoxy)phenoxy)-5-fluoro-N-(2-oxo-1,2-dihydropyridin-4-yl)benzamide] | 745 |
| O=C(Nc1cc[nH]c(=O)c1)c1ccc(Cl)cc1Oc1ccc(F)cc1Cl [Compound 14, 4-chloro-2-(2-chloro-4-fluorophenoxy)-N-(2-oxo-1,2-dihydropyridin-4-yl)benzamide] | 65 |
| O=C(Nc1cc[nH]c(=O)c1)c1ccc(C(F)(F)F)cc1Oc1ccccc1OC(F)(F)F [Compound 80, N-(2-oxo-1,2-dihydropyridin-4-yl)-2-(2-(trifluoromethoxy)phenoxy)-4-(trifluoromethyl)benzamide] | 105 |
| COc1ccc(Oc2ccc(C(F)(F)F)cc2C(=O)Nc2cc[nH]c(=O)c2)c(C)c1 [Compound 63, 2-(4-methoxy-2-methylphenoxy)-N-(2-oxo-1,2-dihydropyridin-4-yl)-5-(trifluoromethyl)benzamide] | 18 |
